Biological target: T1, Ectonucleotide pyrophosphatase/phosphodiesterase family member 1 (Mus musculus, UniProt P06802)
T1 sequence (P06802 whole entry): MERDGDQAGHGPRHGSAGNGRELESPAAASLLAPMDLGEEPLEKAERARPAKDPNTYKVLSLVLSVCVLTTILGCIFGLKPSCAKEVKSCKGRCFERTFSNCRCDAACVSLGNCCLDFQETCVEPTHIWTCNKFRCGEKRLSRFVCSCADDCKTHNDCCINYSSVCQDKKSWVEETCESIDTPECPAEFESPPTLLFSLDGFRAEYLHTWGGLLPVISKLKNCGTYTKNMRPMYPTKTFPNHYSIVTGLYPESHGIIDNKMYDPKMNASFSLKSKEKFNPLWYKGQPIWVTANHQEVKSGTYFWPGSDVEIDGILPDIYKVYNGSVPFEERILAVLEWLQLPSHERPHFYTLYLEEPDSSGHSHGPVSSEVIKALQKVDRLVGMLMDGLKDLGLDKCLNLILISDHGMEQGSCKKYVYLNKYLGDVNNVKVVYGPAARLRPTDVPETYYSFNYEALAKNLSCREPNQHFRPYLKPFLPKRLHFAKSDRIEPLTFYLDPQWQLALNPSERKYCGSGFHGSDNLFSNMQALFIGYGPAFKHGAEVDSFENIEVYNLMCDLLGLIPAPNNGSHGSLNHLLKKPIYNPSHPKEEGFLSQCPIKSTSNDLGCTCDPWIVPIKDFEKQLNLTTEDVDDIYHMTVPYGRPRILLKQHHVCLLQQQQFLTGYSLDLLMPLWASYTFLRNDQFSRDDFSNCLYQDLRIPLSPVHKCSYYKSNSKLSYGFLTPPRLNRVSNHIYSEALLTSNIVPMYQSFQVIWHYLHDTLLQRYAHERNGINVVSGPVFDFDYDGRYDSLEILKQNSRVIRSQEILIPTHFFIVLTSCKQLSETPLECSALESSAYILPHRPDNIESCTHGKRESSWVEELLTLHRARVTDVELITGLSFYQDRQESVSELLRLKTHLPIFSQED
Assay: ENPP1 Enzyme Activity Assay
Procedure: The AMP degradation product was converted to ATP, which was detected using luciferase. To achieve this, an enzyme mixture of polyphosphate:AMP phosphotransferase (PAP) and myokinase was prepared according to Goueli et al. in EP2771480. Briefly, PAP was diluted to 2 mg/mL in buffer containing 50 mM Tris pH 7.5, 0.1% NP-40. Myokinase was diluted to 2 KU/mL in buffer containing 3.2 mM ammonium sulfate pH 6.0, 1 mM EDTA, and 4 mM polyphosphate. The heat-inactivated ENPP1 reaction was incubated with PAP (0.01 μg/μL) and myokinase (0.0075 U/μL) in buffer containing 40 mM Tris pH 7.5, 0.05 mg/mL Prionex, 5 mM MgCl2, 20 μM polyphosphate, and 0.15 g/L phenol red (for ease of pipetting) for 3 hours (total reaction volume=20 μL). CellTiterGlo (20 uL) was added to the reaction according to manufacturer's protocol and luminescence was measured.

For `COc1cccc2c(NCc3ccc(CP(=O)(O)O)cc3)c(C#N)cnc12` [US20250059218, Compound 211], the IC50 was < 50 nM.

With `COc1cccc2c(NCc3ccc(P(=O)(O)O)cc3)ncnc12` [US20250059218, Compound 36] the IC50 was < 50 nM.

With `COc1cc2ncc3ncn(Cc4ccc(CP(=O)(O)O)cc4)c3c2cc1OC` [US20250059218, Compound 218] the IC50 was > 100 nM.

In the case of `COc1cccc2c(N3CCC(CCB(O)O)CC3)c(C#N)cnc12` [US20250059218, Compound 216], the IC50 is reported as > 100 nM.

For `COc1cc(OC)c2ncc(C#N)c(N3CCC(CCP(=O)(O)O)CC3)c2c1` [US20250059218, Compound 46], the IC50 was > 100 nM.

With `COc1cc2ncnc(NCc3ccc(P(=O)(O)O)cc3)c2cc1OC` [US20250059218, Compound 4] the IC50 was < 50 nM.

`COc1cc2ncc(C#N)c(NCc3ccc(P(=O)(O)O)cc3)c2cc1OC` [US20250059218, Compound 203] was tested, and the IC50 was < 50 nM.

`COc1ccc2c(NCc3ccc(B(O)O)cc3)c(C#N)cnc2c1` [US20250059218, Compound 213] was tested, and the IC50 was > 100 nM.

`COc1cccc2c(NCc3ccc(P(=O)(O)O)cc3)c(C#N)cnc12` [US20250059218, Compound 52] was tested, and the IC50 was < 50 nM.

In the case of `COc1ccc2c(N3CCC(CCOP(O)(O)=S)CC3)c(C#N)cnc2c1` [US20250059218, Compound 215], the IC50 is reported as > 100 nM.

For `COc1ccc2c(NCc3ccc(C(=O)NO)cc3)c(C#N)cnc2c1` [US20250059218, Compound 219], the IC50 was > 100 nM.

In the case of `COc1ccc2c(N3CCC(CCB(O)O)CC3)c(C#N)cnc2c1` [US20250059218, Compound 217], the IC50 is reported as > 100 nM.

In the case of `COc1ccc2c(N3CCC(CCP(=O)(O)O)CC3)c(C#N)cnc2c1` [US20250059218, Compound 43], the IC50 is reported as < 50 nM.

For `COc1cc2ncc(N)c(N3CCC(CCP(=O)(O)O)CC3)c2cc1OC` [US20250059218, Compound 205], the IC50 was < 50 nM.

With `COc1cc2ncc(F)c(N3CCC(CCP(=O)(O)O)CC3)c2cc1OC` [US20250059218, Compound 208] the IC50 was > 100 nM.

With `COc1cccc2c(NCc3ccc(C(=O)NO)cc3)ncnc12` [US20250059218, Compound 104] the IC50 was > 100 nM.

`COc1ccc2c(NCc3ccc(P(=O)(O)O)cc3)c(C#N)cnc2c1` [US20250059218, Compound 204] was tested, and the IC50 was < 50 nM.

With `COc1cc2nccc(N3CCC(CCP(=O)(O)O)CC3)c2cc1OC` [US20250059218, Compound 201] the IC50 was > 100 nM.

For `COc1cc2ncnc(Nc3ccc(P(=O)(O)O)cc3)c2cc1OC` [US20250059218, Compound 2], the IC50 was > 100 nM.

For `COc1cccc2c(NCc3ccc(B(O)O)cc3)ncnc12` [US20250059218, Compound 102], the IC50 was < 50 nM.

In the case of `COc1cc2ncnc(NCc3ccc(CP(=O)(O)O)cc3)c2cc1OC` [US20250059218, Compound 5], the IC50 is reported as < 50 nM.

In the case of `COc1ccc2c(N3CCC(COP(O)(O)=S)CC3)c(C#N)cnc2c1` [US20250059218, Compound 48], the IC50 is reported as > 100 nM.

For `COc1cc2ncc(Cl)c(N3CCC(CCP(=O)(O)O)CC3)c2cc1OC` [US20250059218, Compound 207], the IC50 was > 100 nM.

In the case of `COc1cc2ncnc(NCc3ccc(C(=O)NO)cc3)c2cc1OC` [US20250059218, Compound 101], the IC50 is reported as > 100 nM.

In the case of `COc1cccc2c(NCc3ccc(B(O)O)cc3)c(C#N)cnc12` [US20250059218, Compound 214], the IC50 is reported as > 100 nM.

For `COc1cccc2c(N3CCC(CCP(=O)(O)O)CC3)c(C#N)cnc12` [US20250059218, Compound 45], the IC50 was < 50 nM.

In the case of `COc1cc2ncc(C#N)c(N3CCC(CCP(=O)(O)O)CC3)c2cc1OC` [US20250059218, Compound 42], the IC50 is reported as < 50 nM.

`COc1cccc2c(NCc3ccc(C(=O)NO)cc3)c(C#N)cnc12` [US20250059218, Compound 220] was tested, and the IC50 was > 100 nM.

In the case of `COc1ccc2c(N3CCC(CCCP(=O)(O)O)CC3)c(C#N)cnc2c1` [US20250059218, Compound 209], the IC50 is reported as < 50 nM.

With `COc1cccc2c(N3CCC(COP(O)(O)=S)CC3)c(C#N)cnc12` [US20250059218, Compound 50] the IC50 was > 100 nM.

For `COc1cccc2c(N3CCC(CCCP(=O)(O)O)CC3)c(C#N)cnc12` [US20250059218, Compound 210], the IC50 was < 50 nM.

`COc1ccc2c(NCc3ccc(B(O)O)cc3)ncnc2c1` [US20250059218, Compound 103] was tested, and the IC50 was > 100 nM.

For `COc1cccc2c(NCc3ccc(P(=O)(O)O)cc3)nc(/C=C/c3cccnc3)nc12` [US20250059218, Compound 53], the IC50 was < 50 nM.
